Series [1] deals with T1, Broad substrate specificity ATP-binding cassette transporter ABCG2 (Homo sapiens, UniProt Q9UNQ0).
T1 sequence (Q9UNQ0 whole entry): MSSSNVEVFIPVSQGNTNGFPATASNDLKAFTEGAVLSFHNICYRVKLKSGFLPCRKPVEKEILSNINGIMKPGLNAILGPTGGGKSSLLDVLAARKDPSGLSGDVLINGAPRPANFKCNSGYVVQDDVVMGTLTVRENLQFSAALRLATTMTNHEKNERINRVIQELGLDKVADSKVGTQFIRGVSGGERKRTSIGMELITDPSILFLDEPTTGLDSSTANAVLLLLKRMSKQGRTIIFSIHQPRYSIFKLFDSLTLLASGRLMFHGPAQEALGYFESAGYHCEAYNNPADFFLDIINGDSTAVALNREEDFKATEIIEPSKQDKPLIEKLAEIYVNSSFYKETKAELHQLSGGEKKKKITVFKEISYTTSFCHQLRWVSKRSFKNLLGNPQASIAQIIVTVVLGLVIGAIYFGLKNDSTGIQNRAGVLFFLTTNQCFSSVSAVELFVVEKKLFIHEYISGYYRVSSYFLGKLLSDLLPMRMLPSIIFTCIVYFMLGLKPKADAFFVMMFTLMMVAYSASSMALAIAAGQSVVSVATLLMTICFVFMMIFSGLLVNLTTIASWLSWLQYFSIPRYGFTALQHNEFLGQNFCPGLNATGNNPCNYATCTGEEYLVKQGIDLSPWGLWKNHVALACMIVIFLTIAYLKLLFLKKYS
The series can be described thus: TP_TRANSPORTER: uptake in BCRP-expressing Lactococcus lactis cells. The class given is functional, NZ9000.

Series [2] deals with T1, Broad substrate specificity ATP-binding cassette transporter ABCG2. The series is described as follows: TP_TRANSPORTER: uptake in membrane vesicle from BCRP-expressing Lactococcus lactis cells. The class given is functional, cell membranes, NZ9000.
The target is the same in series [3]. The series can be described thus: TP_TRANSPORTER: ATPase assay in membrane vesicle from BCRP-expressing Lactococcus lactis cells. The series is classed as functional, cell membranes, NZ9000.
The target is the same in series [4]. The series is described as follows: TP_TRANSPORTER: growth inhibition in BCRP-expressing Lactococcus lactis cells. The class given is functional, NZ9000.

Consider `CCOc1ccc(-c2nc3cc(-c4nc5cc(N6CCN(C)CC6)ccc5[nH]4)ccc3[nH]2)cc1`, for which the Activity entry in series [1] and in series [2] was “substrate []” each time.

With `CC(C)CCC[C@@H](C)[C@H]1CC[C@H]2[C@@H]3CC=C4C[C@@H](O)CC[C@]4(C)[C@H]3CC[C@]12C` [CHOLESTEROL], the Activity result in series [3] was “substrate []”.

For `COc1cccc2c1C(=O)c1c(O)c3c(c(O)c1C2=O)C[C@@](O)(C(C)=O)C[C@@H]3O[C@H]1C[C@H](N)[C@H](O)[C@H](C)O1` [DAUNORUBICIN], the Activity entry in series [3] is “substrate []”.

As for `C[C@]12CC[C@@H]3c4ccc(O)cc4CC[C@H]3[C@@H]1CC[C@@H]2O` [ESTRADIOL], the Activity result in series [1] and in series [3] was “substrate []” throughout.

As for `CC[n+]1c(-c2ccccc2)c2cc(N)ccc2c2ccc(N)cc21.[Br-]` [HOMIDIUM BROMIDE], the Activity entry in series [1] and in series [4] was “substrate []” each time.

`CC(=O)[C@H]1CC[C@H]2[C@@H]3CCC4=CC(=O)CC[C@]4(C)[C@H]3CC[C@]12C` [PROGESTERONE]: the Activity entry in series [3] was “substrate []”.

In the case of `COC(=O)c1ccccc1-c1c2ccc(=N)cc-2oc2cc(N)ccc12.Cl` [RHODAMINE123], the Activity entry in series [1] is “substrate []”.

As to `CC/C(=C(\c1ccccc1)c1ccc(OCCN(C)C)cc1)c1ccccc1` [TAMOXIFEN], in series [3], the Activity result is “substrate []”.

Regarding `C[C@]12CC[C@H]3[C@@H](CCC4=CC(=O)CC[C@@]43C)[C@@H]1CC[C@@H]2O` [TESTOSTERONE], the Activity result in series [3] was “substrate []”.

Values taken from ChEMBL document CHEMBL2074167, “Sterol transport by the human breast cancer resistance protein (ABCG2) expressed in Lactococcus lactis” (J Biol Chem, 2003).
